In patent US7265120B2, “Pyrazine derivatives and pharmaceutical use thereof” (Astellas Pharma Inc., priority 2004, dated 2007) one finds melting point data, which are given here for 38 molecules.

Structures are written as SMILES.

What is called melting point is the temperature of the solid-liquid transition. For `CC(C)n1nc(-c2nc(C#C[Si](C)(C)C)c(N)nc2-c2ccccc2)ccc1=O`, the melting point fell in the range of 213 to 215 °C.

`CC(C)n1nc(-c2nc(C3=CCN(C)CC3)c(N)nc2-c2ccccc2)ccc1=O`: the melting point fell in the range of 209 to 211 °C.

The molecule `CC(C)n1nc(-c2ncc(O)nc2-c2ccccc2)ccc1=O` [Example 1, 6-(5-hydroxy-3-phenyl-2-pyrazinyl)-2-isopropyl-3(2H)-pyridazinone] registered a melting point of 225 to 227 °C.

For `Cc1nc(-c2ccc(=O)n(C(C)C)n2)c(-c2ccccc2)nc1O` [Example 2, 6-(5-Hydroxy-6-methyl-3-phenyl-2-pyrazinyl)-2-isopropyl-3(2H)-pyridazinone], the melting point was above 250 °C.

In turn, `Cc1nc(-c2ccc(=O)n(C(C)C)n2)c(-c2ccccc2)nc1N` [Example 3, 6-(5-amino-6-methyl-3-phenyl-2-pyrazinyl)-2-isopropyl-3(2H)-pyridazinone] registered a melting point of 208 to 209.5 °C.

The molecule `CC(C)n1nc(-c2nc(C#N)c(C#N)nc2-c2ccccc2)ccc1=O` [Example 4, 5-(1-isopropyl-6-oxo-1,6-dihydro-3-pyridazinyl)-6-phenyl-2,3-pyrazinedicarbonitrile] had a melting point of 201 to 202 °C.

`CC(C)n1nc(-c2nc(C#N)c(N)nc2-c2ccccc2)ccc1=O` [Example 6, 3-amino-6-(1-isopropyl-6-oxo-1,6-dihydro-3-pyridazinyl)-5-phenyl-2-pyrazinecarbonitrile] registered a melting point of 231 to 233 °C.

The molecule `CC(C)n1nc(-c2nc(C(N)=O)c(N)nc2-c2ccccc2)ccc1=O` [Example 7, 3-amino-6-(1-isopropyl-6-oxo-1,6-dihydro-3-pyridazinyl)-5-phenyl-2-pyrazinecarboxamide] registered a melting point of 224 to 226 °C.

On to `CC(C)n1nc(-c2nc(C(=O)O)c(N)nc2-c2ccccc2)ccc1=O` [Example 8, 3-amino-6-(1-isopropyl-6-oxo-1,6-dihydro-3-pyridazinyl)-5-phenyl-2-pyrazinecarboxylic acid], for which the melting point was in the range of 233 to 235 °C.

On to `CC(C)n1nc(-c2ncc(N)nc2-c2ccccc2)ccc1=O` [Example 9, 6-(5-amino-3-phenyl-2-pyrazinyl)-2-isopropyl-3(2H)-pyridazinone], for which the melting point fell in the range of 204 to 206 °C.

The molecule `CCn1nc(-c2nc(C#N)c(C#N)nc2-c2ccccc2)ccc1=O` [Example 11, 5-(1-Ethyl-6-oxo-1,6-dihydro-3-pyridazinyl)-6-phenyl-2,3-pyrazinedicarbonitrile] showed a melting point of 201 to 203 °C.

As to `CCn1nc(-c2nc(C#N)c(NCc3ccc(OC)cc3)nc2-c2ccccc2)ccc1=O` [Example 12, 6-(1-Ethyl-6-oxo-1,6-dihydro-3-pyridazinyl)-3-[(4-methoxybenzyl)amino]-5-phenyl-2-pyrazinecarbonitrile], the melting point was 165.5 to 167.5 °C.

`CCn1nc(-c2nc(C#N)c(N)nc2-c2ccccc2)ccc1=O` [Example 13, 3-Amino-6-(1-ethyl-6-oxo-1,6-dihydro-3-pyridazinyl)-5-phenyl-2-pyrazinecarbonitrile] came in with a melting point above 250 °C.

Molecule `CCn1nc(-c2nc(C(N)=O)c(N)nc2-c2ccccc2)ccc1=O` [Example 14, 3-Amino-6-(1-ethyl-6-oxo-1,6-dihydro-3-pyridazinyl)-5-phenyl-2-pyrazinecarboxamide] had a melting point above 250 °C.

For the molecule `Cn1nc(-c2nc(C#N)c(C#N)nc2-c2ccccc2)ccc1=O` [Example 15, 5-(1-Methyl-6-oxo-1,6-dihydro-3-pyridazinyl)-6-phenyl-2,3-pyrazinedicarbonitrile], the melting point was 210 to 212 °C.

The molecule `COc1ccc(CNc2nc(-c3ccccc3)c(-c3ccc(=O)n(C)n3)nc2C#N)cc1` [Example 16, 3-[(4-Methoxybenzyl)amino]-6-(1-methyl-6-oxo-1,6-dihydro-3-pyridazinyl)-5-phenyl-2-pyrazinecarbonitrile] had a melting point of 166.5 to 168 °C.

On to `Cn1nc(-c2nc(C(N)=O)c(N)nc2-c2ccccc2)ccc1=O` [Example 18, 3-Amino-6-(1-methyl-6-oxo-1,6-dihydro-3-pyridazinyl)-5-phenyl-2-pyrazinecarboxamide], for which the melting point was above 250 °C.

In the case of `Cn1nc(-c2nc(C(=O)O)c(N)nc2-c2ccccc2)ccc1=O` [Example 19, 3-Amino-6-(1-methyl-6-oxo-1,6-dihydro-3-pyridazinyl)-5-phenyl-2-pyrazinecarboxylic acid], the melting point is 238 °C (dec.).

The molecule `Cn1nc(-c2ncc(N)nc2-c2ccccc2)ccc1=O` [Example 20, 6-(5-Amino-3-phenyl-2-pyrazinyl)-2-methyl-3(2H)-pyridazinone] gave a melting point of 202 to 204 °C.

`CC(C)n1nc(-c2nc(N)c(C#N)nc2-c2ccccc2)ccc1=O` [Example 21, 3-Amino-5-(1-isopropyl-6-oxo-1,6-dihydro-3-pyridazinyl)-6-phenyl-2-pyrazinecarbonitrile] had a melting point of 238 to 241 °C.

In turn, `COc1nc(-c2ccccc2)c(-c2ccc(=O)n(C(C)C)n2)nc1C#N` [Example 22, 6-(1-isopropyl-6-oxo-1,6-dihydro-3-pyridazinyl)-3-methoxy-5-phenyl-2-pyrazinecarbonitrile] registered a melting point of 170 to 172 °C.

Turning to `CC(C)n1nc(-c2nc(C#N)c(C(N)=O)nc2-c2ccccc2)ccc1=O` [Example 23, 3-Cyano-5-(1-isopropyl-6-oxo-1,6-dihydro-3-pyridazinyl)-6-phenyl-2-pyrazinecarboxamide], the melting point was above 250 °C.

For the molecule `CC(C)n1nc(-c2nc(C(N)=O)c(C#N)nc2-c2ccccc2)ccc1=O` [Example 23, 3-Cyano-6-(1-isopropyl-6-oxo-1,6-dihydro-3-pyridazinyl)-5-phenyl-2-pyrazinecarboxamide], the melting point was in the range of 195 to 197 °C.

Regarding `COC(=O)c1nc(-c2ccc(=O)n(C(C)C)n2)c(-c2ccccc2)nc1OC` [Example 24, Methyl 6-(1-isopropyl-6-oxo-1,6-dihydro-3-pyridazinyl)-3-methoxy-5-phenyl-2-pyrazinecarboxylate], the melting point lay within 170 to 171 °C.

`CC(C)n1nc(-c2nc(C#N)c(NC=O)nc2-c2ccccc2)ccc1=O` [Example 25, [3-Cyano-5-(1-isopropyl-6-oxo-1,6-dihydro-3-pyridazinyl)-6-phenyl-2-pyrazinyl]formamide]: the melting point was in the range of 198 to 200 °C.

`CC(C)n1nc(-c2nc(NC=O)c(C#N)nc2-c2ccccc2)ccc1=O` [Example 25, [3-Cyano-6-(1-isopropyl-6-oxo-1,6-dihydro-3-pyridazinyl)-5-phenyl-2-pyrazinyl]formamide] yielded a melting point of 206 to 208 °C.

Regarding `CC(C)n1nc(-c2nc(C(N)=S)c(N)nc2-c2ccccc2)ccc1=O` [Example 26, 3-amino-6-(1-isopropyl-6-oxo-1,6-dihydro-3-pyridazinyl)-5-phenyl-2-pyrazinecarbothioamide], the melting point was above 250 °C.

Consider `Cc1csc(-c2nc(-c3ccc(=O)n(C(C)C)n3)c(-c3ccccc3)nc2N)n1` [Example 27, 6-[5-amino-6-(4-methyl-thiazol-2-yl)-3-phenyl-2-pyrazinyl]-2-isopropyl-3(2H)-pyridazinone], for which the melting point fell in the range of 238 to 240 °C.

Take `CC(C)n1nc(-c2nc(-c3nc(-c4ccccc4)cs3)c(N)nc2-c2ccccc2)ccc1=O` [Example 28, 6-[5-Amino-3-phenyl-6-(4-phenyl-thiazol-2-yl)-2-pyrazinyl]-2-isopropyl-3(2H)-pyridazinone]: the melting point lay within 240 to 242 °C.

In turn, `CC(C)n1nc(-c2nc(N)c(C(N)=O)nc2-c2ccccc2)ccc1=O` [Example 29, 3-Amino-5-(1-isopropyl-6-oxo-1,6-dihydro-3-pyridazinyl)-6-phenyl-2-pyrazinecarboxamide] gave a melting point of 217 to 220 °C.

Molecule `COc1ccc(CNc2nc(-c3ccccc3)c(-c3ccc(=O)n(C(C)C)n3)nc2C(=O)O)cc1` [Example 46, 6-(1-isopropyl-6-oxo-1,6-dihydro-3-pyridazinyl)-3-[(4-methoxybenzyl)amino]-5-phenyl-2-pyrazinecarboxylic acid] yielded a melting point of 216.5 to 217 °C.

With `COc1ccc(CNc2nc(-c3ccccc3)c(-c3ccc(=O)n(C(C)C)n3)nc2C#N)cc1` [Example 47, 6-(1-isopropyl-6-oxo-1,6-dihydro-3-pyridazinyl)-3-[(4-methoxybenzyl)amino]-5-phenyl-2-pyrazinecarbonitrile], the melting point was 89 to 93 °C.

In turn, `COc1ccc(CNc2cnc(-c3ccc(=O)n(C(C)C)n3)c(-c3ccccc3)n2)cc1` [Example 49, 2-isopropyl-6-{5-[(4-methoxybenzyl)amino]-3-phenyl-2-pyrazinyl}-3(2H)-pyridazinone] registered a melting point of 138 to 140 °C.

`COc1ccc(CNc2cnc(-c3ccccc3)c(-c3ccc(=O)n(C(C)C)n3)n2)cc1` [Example 49, 2-isopropyl-6-{6-[(4-methoxybenzyl)amino]-3-phenyl-2-pyrazinyl}-3(2H)-pyridazinone] yielded a melting point of 173 to 174 °C.

In the case of `CC(C)n1nc(-c2nc(N)cnc2-c2ccccc2)ccc1=O` [Example 50, 6-(6-amino-3-phenyl-2-pyrazinyl)-2-isopropyl-3(2H)-pyridazinone], the melting point lay in the range of 214 to 217 °C.

In turn, `COc1ccc(CN(Cc2ccc(OC)cc2)c2nc(-c3ccccc3)c(-c3ccc(=O)n(C(C)C)n3)nc2C#N)cc1` [Example 51, 3-[bis(4-methoxybenzyl)amino]-6-(1-isopropyl-6-oxo-1,6-dihydro-3-pyridazinyl)-5-phenyl-2-pyrazinecarbonitrile] displayed a melting point of 207 to 209 °C.

`COc1ccc(CN(Cc2ccc(OC)cc2)c2nc(-c3ccccc3)c(-c3ccc(=O)n(C(C)C)n3)nc2C(N)=O)cc1` [Example 52, 3-[bis(4-methoxybenzyl)amino]-6-(1-isopropyl-6-oxo-1,6-dihydro-3-pyridazinyl)-5-phenyl-2-pyrazinecarboxamide] showed a melting point of 120 to 122.5 °C.

`CC(C)n1nc(-c2nc(Br)c(N)nc2-c2ccccc2)ccc1=O` [Example 53, 6-(5-amino-6-bromo-3-phenyl-2-pyrazinyl)-2-isopropyl-3(2H)-pyridazinone] registered a melting point of 204 to 206 °C.
